Results reported in US20180194762A1 (Pharmacyclics LLC, priority 2017, published 2018).
One block for each molecule: values may come before it.

Legend:
Assay type in all cases: biochemical
TEC = target: T1, TEC (Homo sapiens, UniProt P42680); assay: Inhibition of a panel of kinases (in vitro HotSpot kinase assay, 33P-ATP, 1 μM ATP); settings: for IC50: HotSpot kinase assay, 1 μM ATP; for TEC/Btk: ratio of TEC IC50 to Btk IC50 (selectivity)
T1 sequence (P42680 1-631): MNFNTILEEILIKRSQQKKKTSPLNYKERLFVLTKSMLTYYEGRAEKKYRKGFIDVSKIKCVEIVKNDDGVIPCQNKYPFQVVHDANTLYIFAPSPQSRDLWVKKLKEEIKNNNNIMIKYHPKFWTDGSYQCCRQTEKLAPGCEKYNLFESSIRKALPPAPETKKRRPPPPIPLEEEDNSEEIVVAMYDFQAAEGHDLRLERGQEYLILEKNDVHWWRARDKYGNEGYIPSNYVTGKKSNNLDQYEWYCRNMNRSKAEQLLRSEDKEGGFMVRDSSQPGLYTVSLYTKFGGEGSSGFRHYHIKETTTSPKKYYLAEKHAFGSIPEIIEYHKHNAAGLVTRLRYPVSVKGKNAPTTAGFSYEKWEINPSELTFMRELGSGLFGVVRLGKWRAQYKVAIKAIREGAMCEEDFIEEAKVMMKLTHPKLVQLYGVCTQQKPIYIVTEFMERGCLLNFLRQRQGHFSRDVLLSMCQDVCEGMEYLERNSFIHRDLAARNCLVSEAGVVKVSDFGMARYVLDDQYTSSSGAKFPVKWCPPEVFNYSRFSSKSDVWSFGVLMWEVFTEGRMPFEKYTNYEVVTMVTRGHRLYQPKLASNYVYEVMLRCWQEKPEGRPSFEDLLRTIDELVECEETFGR
In short: (§1)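 Purified kinase enzymes were incubated with an appropriate substrate and 33P-labelled ATP at 1 μM ATP. Inhibition was measured radiometrically from incorporation of the 33P label.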

Btk = target: T2, Btk (Homo sapiens, UniProt Q06187); assay: Btk in vitro inhibitory activity (one of Method A TR-FRET, Method B electrophoretic mobility shift, Method C radiometric filter binding); settings: wild-type Btk; read-out: Btk-WT IC50
T2 construct: purified from insect cells as a full-length construct containing a N-terminal 6X-His tag; His6 (N); made in house; host or cells: insect cells (Method C)
T2 sequence (Q06187 whole entry): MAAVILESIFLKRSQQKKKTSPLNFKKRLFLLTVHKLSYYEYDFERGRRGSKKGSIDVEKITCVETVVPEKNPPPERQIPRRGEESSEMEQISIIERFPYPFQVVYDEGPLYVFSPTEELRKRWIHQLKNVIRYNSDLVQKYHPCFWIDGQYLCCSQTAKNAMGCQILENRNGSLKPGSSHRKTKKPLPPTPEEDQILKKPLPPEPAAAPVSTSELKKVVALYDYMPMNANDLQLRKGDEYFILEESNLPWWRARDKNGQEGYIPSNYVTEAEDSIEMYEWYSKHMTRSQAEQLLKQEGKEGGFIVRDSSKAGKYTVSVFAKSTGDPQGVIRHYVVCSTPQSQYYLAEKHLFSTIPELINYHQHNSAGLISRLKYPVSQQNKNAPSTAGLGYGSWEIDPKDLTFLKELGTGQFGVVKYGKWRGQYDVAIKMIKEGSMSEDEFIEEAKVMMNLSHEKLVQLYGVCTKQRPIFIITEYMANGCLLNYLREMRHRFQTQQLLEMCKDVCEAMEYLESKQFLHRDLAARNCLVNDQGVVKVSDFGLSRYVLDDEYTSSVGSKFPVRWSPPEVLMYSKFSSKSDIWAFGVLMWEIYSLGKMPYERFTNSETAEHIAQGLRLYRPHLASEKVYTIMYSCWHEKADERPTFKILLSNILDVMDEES
In short: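 Method A: TR-FRET with 0.5 nM Btk at [ATP]=Km, EDTA-quenched, 665/615 nm ratio; Ki(app) converted to IC50. Method B: 1 nM full-length His6 human BTK, 1 μM FAM peptide, pH 7.5, mobility-shift product/sum ratio, 12-point 4-parameter fit. Method C: radiometric filter binding, 8 nM His-tagged BTK, 0.2 mg/mL poly-Glu-Tyr.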

panel of kinases = target: T3, panel of kinases (Homo sapiens, UniProt P51813); assay: Inhibition of a panel of kinases (in vitro HotSpot kinase assay, 33P-ATP, 1 μM ATP), other kinases; settings: BMX wild-type, read-out: BMX-WT IC50
T3 sequence (P51813 1-675): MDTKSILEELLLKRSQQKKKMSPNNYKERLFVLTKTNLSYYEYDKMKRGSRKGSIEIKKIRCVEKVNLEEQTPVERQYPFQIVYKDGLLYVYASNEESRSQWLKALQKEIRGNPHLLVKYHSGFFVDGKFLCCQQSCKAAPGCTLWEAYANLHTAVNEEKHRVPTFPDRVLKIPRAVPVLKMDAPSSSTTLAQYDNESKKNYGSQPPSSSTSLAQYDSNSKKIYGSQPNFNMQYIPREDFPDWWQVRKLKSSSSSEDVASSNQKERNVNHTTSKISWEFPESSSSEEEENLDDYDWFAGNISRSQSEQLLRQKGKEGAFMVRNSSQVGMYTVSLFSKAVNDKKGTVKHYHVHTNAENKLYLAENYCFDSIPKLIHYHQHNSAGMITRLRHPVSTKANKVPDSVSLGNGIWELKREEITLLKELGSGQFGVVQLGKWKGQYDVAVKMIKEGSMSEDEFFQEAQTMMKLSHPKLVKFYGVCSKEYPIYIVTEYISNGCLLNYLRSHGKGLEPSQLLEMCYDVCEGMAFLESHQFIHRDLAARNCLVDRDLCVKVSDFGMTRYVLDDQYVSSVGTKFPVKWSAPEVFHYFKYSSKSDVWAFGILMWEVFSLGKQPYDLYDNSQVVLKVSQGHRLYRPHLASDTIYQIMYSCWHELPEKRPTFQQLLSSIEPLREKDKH
In short: as §1

SMILES: O=c1c2c(F)cc(C3CC3)cc2ccn1-c1cccc(-c2ccnc3[nH]nc(N[C@@H]4CCNC4)c23)c1CO [Compound 17, (R)-6-cyclopropyl-8-fluoro-2-(2-(hydroxymethyl)-3-(3-(pyrrolidin-3-ylamino)-1H-pyrazolo[3,4-b]pyridin-4-yl)phenyl)isoquinolin-1 (2H)-one]
- IC50 (TEC): 5.92 µM
- TEC/Btk (TEC): 19
- IC50 (Btk): 0.312 µM
- IC50 (panel of kinases): 6.41 µM

SMILES: CC(C)(C)CCC(=O)NCc1ccc(-c2ccnc3[nH]nc(N[C@H]4CC[C@H](O)CC4)c23)cc1F [Compound 19, N-{[2-fluoro-4-(3-{[(1r,4r)-4-hydroxycyclohexyl]amino}-1H-pyrazolo[3,4-b]pyridin-4-yl)phenyl]methyl}-4,4-dimethylpentanamide]
- IC50 (TEC): > 10 µM
- IC50 (Btk): > 10 µM
- IC50 (panel of kinases): 7.46 µM

SMILES: CCn1cc(C(=O)NCc2ccc(-c3ccnc4[nH]nc(N[C@H]5CC[C@H](O)CC5)c34)cc2F)cn1 [Compound 20, 1-ethyl-N-{[2-fluoro-4-(3-{[(1r,4r)-4-hydroxycyclohexyl]amino}-1H-pyrazolo[3,4-b]pyridin-4-yl)phenyl]methyl}-1H-pyrazole-4-carboxamide]
- IC50 (TEC): > 10 µM
- IC50 (Btk): > 10 µM
- IC50 (panel of kinases): 5.28 µM

SMILES: CC(C)(C)c1ccc(C(=O)NC2(c3ccc(-c4ccnc5[nH]nc(N[C@H]6CC[C@H](O)CC6)c45)cc3)CC2)cc1 [Compound 22, 4-tert-butyl-N-{1-[4-(3-{[(1r,4r)-4-hydroxycyclohexyl]amino}-1H-pyrazolo[3,4-b]pyridin-4-yl)phenyl]cyclopropyl}benzamide]
- IC50 (TEC): > 10 µM
- IC50 (Btk): > 10 µM
- IC50 (panel of kinases): 6.47 µM

SMILES: CC(C)(C)c1ccc(C(=O)NCc2ccc(-c3ccnc4[nH]nc(N[C@H]5CC[C@H](O)CC5)c34)cc2)cc1 [Compound 23, 4-tert-butyl-N-{[4-(3-{[(1r,4r)-4-hydroxycyclohexyl]amino}-1H-pyrazolo[3,4-b]pyridin-4-yl)phenyl]methyl}benzamide]
- IC50 (TEC): > 10 µM
- IC50 (Btk): > 10 µM
- IC50 (panel of kinases): > 10 µM

Now those with a lower IC50 (TEC), led by results:

- IC50 (TEC): 3.17 µM
- TEC/Btk (TEC): 59
- IC50 (Btk): 0.0534 µM
- IC50 (panel of kinases): 4.37 µM
SMILES: CC(C)(C)c1nc(C(=O)NCc2ccc(-c3ccnc4[nH]nc(N[C@H]5CC[C@H](O)CC5)c34)cc2F)no1 [Compound 21, 5-tert-butyl-N-{[2-fluoro-4-(3-{[(1r,4r)-4-hydroxycyclohexyl]amino}-1H-pyrazolo[3,4-b]pyridin-4-yl)phenyl]methyl}-1,2,4-oxadiazole-3-carboxamide]

- IC50 (TEC): 0.964 µM
- TEC/Btk (TEC): 88
- IC50 (Btk): 0.011 µM
- IC50 (panel of kinases): 0.595 µM
SMILES: CN(C)C/C=C/C(=O)N1CC[C@@H](Nc2n[nH]c3nccc(-c4ccc(C5(NC(=O)c6noc(C(C)(C)C)n6)CC5)cc4)c23)C1 [Compound 29, (R,E)-5-(tert-butyl)-N-(1-(4-(3-((1-(4-(dimethylamino)but-2-enoyl)pyrrolidin-3-yl)amino)-1H-pyrazolo[3,4-b]pyridin-4-yl)phenyl)cyclopropyl)-1,2,4-oxadiazole-3-carboxamide]

- IC50 (TEC): 0.2 µM
- TEC/Btk (TEC): 347
- IC50 (Btk): 0.000575 µM
- IC50 (panel of kinases): 0.071 µM
SMILES: CC#CC(=O)N1CC[C@@H](Nc2n[nH]c3nccc(-c4ccc(C5(NC(=O)c6noc(C(C)(C)C)n6)CC5)cc4)c23)C1 [Compound 28, (R)—N-(1-(4-(3-((1-(but-2-ynoyl)pyrrolidin-3-yl)amino)-1H-pyrazolo[3,4-b]pyridin-4-yl)phenyl)cyclopropyl)-5-(tert-butyl)-1,2,4-oxadiazole-3-carboxamide]

- IC50 (TEC): 0.04 µM
- TEC/Btk (TEC): 23
- IC50 (Btk): 0.00169 µM
- IC50 (panel of kinases): 0.073 µM
SMILES: C=CC(=O)N1CC[C@@H](Nc2n[nH]c3nccc(-c4cccc(-n5ccc6cc(C7CC7)cc(F)c6c5=O)c4CO)c23)C1 [Compound 18, 6-cyclopropyl-8-fluoro-2-[2-(hydroxymethyl)-3-(3-{[(3R)-1-(prop-2-enoyl)pyrrolidin-3-yl]amino}-1H-pyrazolo[3,4-b]pyridin-4-yl)phenyl]-1,2-dihydroisoquinolin-1-one]
